Assay results: a melting point compilation (Tetko et al.; mined from patent text by program, amines drawn as free bases though some values may be those of a salt)

Compound | melting point [°C]
Cn1nc(C(F)(F)F)c(C(=O)O)c1N | 216 to 218
CN1CC(CCCl)Oc2cc(Cl)ccc2C1=O (stereo unspecified) | 85 to 87
COc1cc(C(=CC#N)c2cc(OC)c(OC)c(OC)c2)ccc1N | 123 to 125
Oc1ccc(Nc2cc(Cl)ncn2)cc1 | 241 to 244
COc1ccccc1-n1cc(-c2ccccc2)c(OCC(=O)O)n1 | 170 to 174
CN1CCCNC1=Nc1ccccc1N1CCOCC1 | 138 to 139
Nc1nc(NCCc2ccc(Cl)cc2)sc1C(=O)c1ccccc1[N+](=O)[O-] | 117 to 120
COc1ccc(-c2csc(Nc3cccnc3)n2)cc1OC | 251 to 254
Fc1ccccc1[C@@H]1Cc2cnc(Nc3cccc(CCN4CCNCC4)c3)nc2-c2ccccc21 | 165 to 167
ClCCN(CCCl)CCCCOc1cccc(Nc2c3ccccc3nc3ccccc23)c1 | 126 to 127
O=C(O)C1=Cc2c(Cl)ccc(Cl)c2OC1C(F)(F)F (stereo unspecified) | 206 to 207
CC1(C)OCCc2c1[nH]c1ccccc21 | 142 to 144
COC1=C(OC)C(=O)c2c(Cl)cccc2C1=O | 120 to 121
COc1cc(CCC=O)ccc1OCc1nc(-c2ccccc2)oc1C | 80 to 81
CN1CCN(c2cc(Br)cc3c2c(=O)n(Cc2ccccc2Cl)c(=O)n3Cc2ccccc2)CC1 | 104 to 108
CCOc1nc(-c2ccco2)c2ncn(Cc3ccc(OC)cc3)c2n1 | 137 to 138
NC(=O)CCCC1(c2ccccc2)CC(O)=C(SCc2ccccc2)C(=O)O1 (stereo unspecified) | 47.5 to 53
O=C(c1ccccc1)N1CCCC(c2nc(-c3ccc(F)cc3)no2)C1 (stereo unspecified) | 82 to 83
CCNc1nc(=S)n(Cc2ccc(OC)c(OC3CCCC3)c2)c2nc(C(C)C)[nH]c12 | 72 to 77
O=C1NC(=O)C2(C=CC=C3OCC=C32)N1 (stereo unspecified) | 245 to 248
COc1ccc(S(=O)(=O)N2CC3CCC(CC3)C2)c2ccccc12 | 168 to 170
CCN(CC)CCOc1ccc(Nc2ncc3c(n2)N(CC)C(=O)N(c2c(Cl)cccc2Cl)C3)cc1 | 85
CCCC[C@H](NS(=O)(=O)c1ccc(Br)cc1)C(=S)Nc1ccc(CCC(=O)O)cc1 | 174 to 176

Compound | melting point [°C]
COC(=O)CCC(=O)c1cc2cc(OC)c(OC)cc2o1 | 140 to 142
O=C(O)[C@H](Cc1c[nH]c2ccccc12)NC(=O)C1(NC(=O)[C@@H](S)C2CCOCC2)CCCC1 | 212 to 215
Cc1coc2ncnc(NCCc3ccc(Cl)cc3)c12 | 140
O=C(O)Cn1nnnc1S | 110 to 111
O=C(Oc1ccccc1)c1ncn2c1[C@@H]1CCCN1C(=O)c1c(Cl)cccc1-2 | 211 to 212
Fc1ccc2c(C3CCNCC3)n[nH]c2c1 | 214 to 216
COc1cc2c(cc1F)C(CCCN1CCN(C)CC1)(c1ccccc1F)C(=O)N2S(=O)(=O)c1ccc(OC(C)C)cc1 (stereo unspecified) | 72
CCCCNc1cccnc1S(N)(=O)=O | 100 to 101
CCCC[C@@H](NC(=O)OC(C)(C)C)C(=O)NCC(=O)OCc1ccccc1 | 85 to 86
CN(C)c1ncnc2[nH]c(-c3ccc(CO)cc3)cc12 | 306 to 309
Nc1nc2c(sc(=O)n2C2CC(O)C(CO)O2)c(=O)[nH]1 (stereo unspecified) | > 170
CCCC(=O)Oc1c(-c2ccc(-c3ccccc3)cc2)nc2ccccc2c1C(=O)O | 195 to 196
Cc1cc(-c2cc(CO)c(=O)n(CC(C)C)n2)ccc1F | 107 to 110
CCCC(=O)N1CCC(C(=O)OC2c3ccccc3C(=O)N2c2ccc3ccc(Cl)nc3n2)CC1 (stereo unspecified) | 165
COc1cc(Oc2cccc(C(F)(F)F)c2)nc(C(=O)Nc2ccccc2)c1 | 131 to 133
COc1ccc(-c2cc(F)c(F)cc2-c2ccc(S(N)(=O)=O)cc2)cc1C | 120 to 122
COCCNc1c([N+](=O)[O-])cc(C)cc1[N+](=O)[O-] | 75
O=C(NN=CC=Cc1ccccc1)c1ccccc1 | 192 to 194
Cc1nnc2n1-c1sc(CC(=O)N3CCCCC3)cc1C(c1ccccc1Cl)=NC2C (stereo unspecified) | 182 to 183
Oc1ccc(Nc2ncc3ncc(-c4cccc(O)c4)cc3n2)cc1 | > 268
COc1ccc(CN2C(=O)C3(COc4cc5c(cc43)CCO5)c3ccccc32)cc1 (stereo unspecified) | 120 to 121
CCOC[C@@H]1CNCC[C@@H]1c1ccc(Cl)c(Cl)c1 | 68 to 70
NC(=O)C(N)c1ccc(F)cc1F (stereo unspecified) | 143

Compound | melting point [°C]
O=C1CCCc2c1c(-c1ccccc1)nn2-c1ccccc1 | 162
O=C1NC(Cc2c[nH]c3ccccc23)C(CCc2cc(C(F)(F)F)cc(C(F)(F)F)c2)N1CCN1CCOCC1 (stereo unspecified) | 207
COc1cccc(C(=O)N2CCc3cc(OCc4ccccc4)c(OC)cc3C2=O)c1 | 141 to 143
CC(=O)N1CC(Cc2ccccc2)OC1=O (stereo unspecified) | 90
O=C(O)c1cc2cc3c(cc2oc1=O)OCO3 | 279 to 280
COC(=O)CCc1cc2cc(Cl)ccc2n1S(=O)(=O)c1cccc(OC)c1 | 106 to 109
O=C(O)C(=O)CC(=O)c1cccn1Cc1ccc2ccccc2c1 | 160 to 162
O=C(Nc1nc2ccc(Sc3nnc4ccc(-c5cccc(F)c5)cn34)cc2s1)C1CC1 | > 260
O=c1ncc(Br)cn1CC(O)C(Cl)(Cl)Cl (stereo unspecified) | 210 to 212
CCCOc1ccccc1C(=O)Nc1cnccc1C(N)=O | 181 to 183
COCc1ccc(-c2coc3ccc(-c4nnc(C)o4)cc23)cc1 | 158 to 159
COc1c(CC(=O)O)cccc1CC(=O)O | 184 to 186
Oc1c2c(nn1-c1ccccn1)CCCc1ccccc1-2 | 80 to 81
CCN(CC)C(=O)c1cc2ccc(C)cc2c(-c2ccccc2Cl)n1 | 162
CC(=O)c1nc2ccc(OCC(F)(F)C(F)F)cc2cc1O | 119 to 121
CN1CCN(c2ccc(I)nn2)CC1 | 149
Cc1ccc(Cl)cc1N1CCCN(C(C)C)C1=S | 176 to 178
CCc1nnc(-c2ccc(OC)cc2)n1-c1ccc(C(=O)N(C)C)cc1 | 136
O=C(O)COc1ccc(C(=O)Nc2ccccc2Sc2ccccc2-c2nnn[nH]2)cc1 | 252 to 253
CNC(=O)C(C)n1c(-c2ccc(Cl)cc2)nc2cccnc21 (stereo unspecified) | 217 to 218
FC(F)(F)c1cccc(N=C=S)c1 | 133
CCNn1c(C)nc(N2CCc3ccccc3CC2)c(C#N)c1=O | 172 to 174

The remaining lines, values ahead:

melting point [°C] | Compound
132 to 134 | CSC1=N[C@@H](c2ccccc2)[C@H](c2ccccc2)N1 (relative stereo)
63 to 67 | CC[C@H](COCC#Cc1ccccc1)n1cnc2c(N)nc3ccccc3c21
140 | CC(C)CCNC(=O)c1ccc2c(c1)N(C(C)CN1CCCC1CO)c1ccccc1S2 (stereo unspecified)
158 to 159 | CCc1cccc2c3c([nH]c12)C(CC)(CC(O)O)OCC3 (stereo unspecified)
177 to 178 | CN(C(=O)Nc1ccccc1CCc1cc(C(C)(C)C)c(O)c(C(C)(C)C)c1)C1CCN(Cc2ccc(F)cc2)CC1
195 | Cc1cc(Oc2ccccc2)c(S(C)(=O)=O)cc1C(=O)O
174 to 176 | Cc1ccc(NS(=O)(=O)c2ccc(N)cc2)cc1
162 to 165 | N#Cc1cc(C(=O)CBr)ccc1N
105 | COc1ccc(NN)c(C)c1
156 to 158 | CCCCc1ccc(C(=O)NCCN(C(C)=O)[C@@H](CCC(N)=O)C(=O)O)nc1
34 to 36 | CCCCNc1c(N)c(NCC(C)C)nc(C)c1C(=O)OCC
280 to 284 | O=c1[nH]ncc2[nH]c(-c3ccc(OC(F)F)c(OC4CCC4)c3)c(-c3ccccc3)c12
167 to 170 | N#Cc1ccc(C2=NOC3(CCN(C(=O)CCC(=O)O)CC3)C2)cc1
99 to 101 | CCOC(=O)c1nc(C2CC2)nc(N)c1/C=C/[Si](C)(C)C
319 to 321 | CC(=O)Oc1ccc(-c2nc3c(N)nc(N)nc3nc2N)cc1
97 to 100 | CCNc1ccc(SSc2ccc(NCC)cc2C(=O)NC(C(=O)O)C(C)CC)c(C(=O)NC(C(=O)O)C(C)CC)c1 (stereo unspecified)
163 to 164 | COC(=O)c1ccc(CC(=O)Nc2cccc(/C=C/c3nc(C4CCC4)cs3)c2)cc1

melting point [°C] | Compound
133 to 134 | Cc1ccc(CC(CC(=O)N2CC3CCCCC3C2)C(=O)O)cc1 (stereo unspecified)
143 to 146 | COC(=O)C1(C)CN(C(=O)Nc2ccc(C(F)(F)F)cc2)N=C1c1ccc(Cl)cc1 (stereo unspecified)
272 to 276 | CN(C=O)C1C(O)CC2C3CCc4cc(O)ccc4C3CCC21C (stereo unspecified)
98 to 100 | CC1CCc2nc(N)sc2C1 (stereo unspecified)
106 to 107 | CSC(=S)NCc1ccc([N+](=O)[O-])cc1
98 to 99 | CCCc1c(C)nc2ccc(C(=O)OC)cn2c1=O
183 to 186 | Cc1cc(-c2nc[nH]n2)ccc1N
142 to 144 | CC(C)(C)OC(=O)NC1CCCOCC=CC2CC2(C(=O)NS(=O)(=O)C2CC2)NC(=O)C2CC(OC(=O)NCC3CCCCC3)CN2C1=O (stereo unspecified)
70 | C=CC(=O)OCCCOc1ccc(-c2ccc(C#N)cc2)cc1
186 to 187 | CN(CC(=O)N1CCN(Cc2ccc3c(c2)OCO3)CC1)c1ccc(Oc2ccc(NS(=O)(=O)c3ccc(Cl)c(Cl)c3)cn2)c(F)c1
172 to 175 | COc1ccc(CC(=O)Nc2c(-c3cc(Cl)ccc3O)c3cc(C(F)(F)F)ccc3[nH]c2=O)cc1
205 to 207 | N=C(N)c1cccc(S(=O)(=O)c2ccc(OC[C@@H]3C[C@@H](CC(=O)O)C(=O)N3CCCc3ccccc3)cc2)c1
30 | CCCCCCCCCCCCCCCCCC(=O)OCCN1C(C)(C)CCCC1(C)C
212 | O=[N+]([O-])c1ccc(Oc2c(Cl)cc(S(=O)(=O)NC(=NO)Nc3ccc(Cl)cc3)cc2Cl)cc1
252 to 258 | O=C(O)c1cn(-c2ccc(F)cc2F)c2nc(S(=O)(=O)c3ccccc3)c(F)cc2c1=O
83 to 86 | N#Cc1ccc(Oc2ccc(S(=O)(=O)NCc3ccc4ccccc4n3)cc2)c(Cl)c1
